Laboratory results published in the NIST ThermoML archive (doi:10.1021/je060271a).
Where “and” joins values, the source holds several entries; their conditions need not be identical. Equal entries are not always repeated. ± gives the expanded uncertainty stated by the source.

Conditions: Liquid, Vibrating tube method

CCCCCC(=O)OCC(COC(=O)CCCCC)(COC(=O)CCCCC)COC(=O)CCCCC [pentaerythritol tetrahexanoate]
Conditions | mass density
303.15 K, 32445 kPa | 1007.6 ± 1.2 kg/m3
303.15 K, 32464 kPa | 1007.7 ± 1.2 kg/m3
303.15 K, 32483 kPa | 1007.6 ± 1.2 kg/m3
303.15 K, 32506 kPa | 1007.5 ± 1.2 kg/m3
303.15 K, 32525 kPa | 1007.6 ± 1.2 kg/m3
303.15 K, 32544 kPa | 1007.5 ± 1.2 kg/m3
303.15 K, 32567 kPa | 1007.6 ± 1.2 kg/m3
303.15 K, 32586 kPa | 1007.6 ± 1.2 kg/m3
303.15 K, 32605 kPa | 1007.7 ± 1.2 kg/m3
303.15 K, 32624 kPa | 1007.6 ± 1.2 kg/m3
303.15 K, 32647 kPa | 1007.7 ± 1.2 kg/m3
303.15 K, 32808 kPa | 1007.7 ± 1.2 kg/m3
303.15 K, 32832 kPa | 1007.7 ± 1.2 kg/m3
303.15 K, 32851 kPa | 1007.8 ± 1.2 kg/m3
303.15 K, 32871 kPa | 1007.7 ± 1.2 kg/m3
303.15 K, 32895 kPa | 1007.8 ± 1.2 kg/m3
303.15 K, 33911 kPa | 1008.4 ± 1.2 kg/m3
303.15 K, 33938 kPa | 1008.4 ± 1.2 kg/m3
303.15 K, 33963 kPa | 1008.4 ± 1.2 kg/m3
303.15 K, 33989 kPa | 1008.3 ± 1.2 kg/m3
303.15 K, 34002 kPa | 1008.3 ± 1.2 kg/m3
303.15 K, 34011 kPa | 1008.3 ± 1.2 kg/m3
303.15 K, 34016 kPa | 1008.3 ± 1.2 kg/m3
303.15 K, 34028 kPa | 1008.4 ± 1.2 kg/m3
303.15 K, 34041 kPa | 1008.4 ± 1.2 kg/m3
303.15 K, 34057 kPa | 1008.4 ± 1.2 kg/m3
303.15 K, 34070 kPa | 1008.3 ± 1.2 kg/m3
303.15 K, 34166 kPa | 1008.4 ± 1.2 kg/m3
303.15 K, 34178 kPa | 1008.6 ± 1.2 kg/m3
303.15 K, 34182 kPa | 1008.4 ± 1.2 kg/m3
303.15 K, 34186 kPa | 1008.5 ± 1.2 kg/m3
303.15 K, 34190 kPa | 1008.5 ± 1.2 kg/m3
303.15 K, 34194 kPa | 1008.5 ± 1.2 kg/m3
303.15 K, 34195 kPa | 1008.6 ± 1.2 kg/m3
303.15 K, 34196 kPa | 1008.5 ± 1.2 kg/m3 and 1008.4 ± 1.2 kg/m3
303.15 K, 34197 kPa | 1008.5 ± 1.2 kg/m3
303.15 K, 34198 kPa | 1008.4 ± 1.2 kg/m3
303.15 K, 34425 kPa | 1008.7 ± 1.2 kg/m3
303.15 K, 34426 kPa | 1008.6 ± 1.2 kg/m3
303.15 K, 34427 kPa | 1008.6 ± 1.2 kg/m3
303.15 K, 34428 kPa | 1008.6 ± 1.2 kg/m3
303.15 K, 34430 kPa | 1008.8 ± 1.2 kg/m3 and 1008.6 ± 1.2 kg/m3
303.15 K, 34431 kPa | 1008.7 ± 1.2 kg/m3
303.15 K, 34432 kPa | 1008.8 ± 1.2 kg/m3
303.15 K, 34434 kPa | 1008.7 ± 1.2 kg/m3 and 1008.6 ± 1.2 kg/m3
303.16 K, 193.7 kPa | 988.5 ± 1.2 kg/m3 and 988.4 ± 1.2 kg/m3
303.16 K, 193.9 kPa | 988.4 ± 1.2 kg/m3
303.16 K, 194.1 kPa | 988.5 ± 1.2 kg/m3 and 988.4 ± 1.2 kg/m3
303.16 K, 194.3 kPa | 988.6 ± 1.2 kg/m3 and 988.4 ± 1.2 kg/m3
303.16 K, 194.4 kPa | 988.6 ± 1.2 kg/m3
303.16 K, 195.5 kPa | 988.4 ± 1.2 kg/m3
303.16 K, 195.6 kPa | 988.5 ± 1.2 kg/m3
303.16 K, 195.7 kPa | 988.5 ± 1.2 kg/m3
303.16 K, 196.9 kPa | 988.5 ± 1.2 kg/m3
303.16 K, 197.4 kPa | 988.5 ± 1.2 kg/m3 and 988.4 ± 1.2 kg/m3
303.16 K, 197.6 kPa | 988.4 ± 1.2 kg/m3
303.16 K, 197.7 kPa | 988.5 ± 1.2 kg/m3
303.16 K, 198.1 kPa | 988.5 ± 1.2 kg/m3
303.16 K, 199.6 kPa | 988.5 ± 1.2 kg/m3
303.16 K, 200 kPa | 988.5 ± 1.2 kg/m3
303.16 K, 200.2 kPa | 988.6 ± 1.2 kg/m3
303.16 K, 200.3 kPa | 988.4 ± 1.2 kg/m3
303.16 K, 200.5 kPa | 988.5 ± 1.2 kg/m3
303.16 K, 200.7 kPa | 988.4 ± 1.2 kg/m3
303.16 K, 201 kPa | 988.5 ± 1.2 kg/m3
303.16 K, 201.2 kPa | 988.5 ± 1.2 kg/m3
303.16 K, 201.4 kPa | 988.6 ± 1.2 kg/m3 and 988.3 ± 1.2 kg/m3
303.16 K, 201.6 kPa | 988.4 ± 1.2 kg/m3
303.16 K, 201.9 kPa | 988.5 ± 1.2 kg/m3
303.16 K, 202.2 kPa | 988.5 ± 1.2 kg/m3
303.16 K, 202.8 kPa | 988.5 ± 1.2 kg/m3
303.16 K, 202.9 kPa | 988.5 ± 1.2 kg/m3
303.16 K, 204.2 kPa | 988.5 ± 1.2 kg/m3
303.16 K, 207.1 kPa | 988.5 ± 1.2 kg/m3
303.16 K, 207.3 kPa | 988.5 ± 1.2 kg/m3
303.16 K, 207.8 kPa | 988.4 ± 1.2 kg/m3
303.16 K, 208 kPa | 988.5 ± 1.2 kg/m3
303.16 K, 208.2 kPa | 988.5 ± 1.2 kg/m3
303.16 K, 209 kPa | 988.5 ± 1.2 kg/m3
303.16 K, 209.2 kPa | 988.5 ± 1.2 kg/m3
303.16 K, 209.5 kPa | 988.6 ± 1.2 kg/m3
303.16 K, 209.7 kPa | 988.4 ± 1.2 kg/m3
303.16 K, 211.5 kPa | 988.5 ± 1.2 kg/m3
303.16 K, 211.8 kPa | 988.5 ± 1.2 kg/m3
303.16 K, 212.7 kPa | 988.4 ± 1.2 kg/m3 and 988.5 ± 1.2 kg/m3
303.16 K, 212.9 kPa | 988.5 ± 1.2 kg/m3
303.16 K, 219.3 kPa | 988.6 ± 1.2 kg/m3
303.16 K, 220.1 kPa | 988.5 ± 1.2 kg/m3
303.16 K, 220.8 kPa | 988.6 ± 1.2 kg/m3
303.16 K, 221.2 kPa | 988.6 ± 1.2 kg/m3 and 988.4 ± 1.2 kg/m3 and 988.5 ± 1.2 kg/m3
303.16 K, 221.4 kPa | 988.6 ± 1.2 kg/m3
303.16 K, 221.5 kPa | 988.6 ± 1.2 kg/m3
303.16 K, 221.9 kPa | 988.5 ± 1.2 kg/m3
303.16 K, 222.2 kPa | 988.6 ± 1.2 kg/m3
303.16 K, 222.4 kPa | 988.5 ± 1.2 kg/m3
303.16 K, 222.8 kPa | 988.6 ± 1.2 kg/m3
303.16 K, 223.1 kPa | 988.5 ± 1.2 kg/m3 and 988.4 ± 1.2 kg/m3
303.16 K, 223.3 kPa | 988.4 ± 1.2 kg/m3
303.16 K, 223.6 kPa | 988.5 ± 1.2 kg/m3
303.16 K, 223.8 kPa | 988.6 ± 1.2 kg/m3
303.16 K, 224 kPa | 988.4 ± 1.2 kg/m3
303.16 K, 224.1 kPa | 988.6 ± 1.2 kg/m3
303.16 K, 224.5 kPa | 988.4 ± 1.2 kg/m3
303.16 K, 225 kPa | 988.6 ± 1.2 kg/m3
303.16 K, 225.2 kPa | 988.4 ± 1.2 kg/m3
303.16 K, 225.7 kPa | 988.5 ± 1.2 kg/m3
303.16 K, 226 kPa | 988.4 ± 1.2 kg/m3
303.16 K, 226.6 kPa | 988.4 ± 1.2 kg/m3 and 988.6 ± 1.2 kg/m3
303.16 K, 227.1 kPa | 988.5 ± 1.2 kg/m3
303.16 K, 227.3 kPa | 988.6 ± 1.2 kg/m3 and 988.5 ± 1.2 kg/m3
303.16 K, 227.6 kPa | 988.5 ± 1.2 kg/m3 and 988.4 ± 1.2 kg/m3 and 988.6 ± 1.2 kg/m3
303.16 K, 231.4 kPa | 988.4 ± 1.2 kg/m3
303.16 K, 232 kPa | 988.5 ± 1.2 kg/m3
303.16 K, 232.1 kPa | 988.5 ± 1.2 kg/m3
303.16 K, 232.7 kPa | 988.5 ± 1.2 kg/m3
303.16 K, 233.9 kPa | 988.5 ± 1.2 kg/m3
303.16 K, 234 kPa | 988.5 ± 1.2 kg/m3 and 988.6 ± 1.2 kg/m3
303.16 K, 234.2 kPa | 988.5 ± 1.2 kg/m3
303.16 K, 234.6 kPa | 988.5 ± 1.2 kg/m3
303.16 K, 234.9 kPa | 988.5 ± 1.2 kg/m3
303.16 K, 235.4 kPa | 988.6 ± 1.2 kg/m3
303.16 K, 235.6 kPa | 988.6 ± 1.2 kg/m3
303.16 K, 236 kPa | 988.5 ± 1.2 kg/m3
303.16 K, 236.1 kPa | 988.6 ± 1.2 kg/m3
303.16 K, 236.3 kPa | 988.5 ± 1.2 kg/m3 and 988.6 ± 1.2 kg/m3
303.16 K, 236.8 kPa | 988.6 ± 1.2 kg/m3 and 988.5 ± 1.2 kg/m3
303.16 K, 237.2 kPa | 988.5 ± 1.2 kg/m3
303.16 K, 237.5 kPa | 988.6 ± 1.2 kg/m3
303.16 K, 237.7 kPa | 988.5 ± 1.2 kg/m3
303.16 K, 238 kPa | 988.6 ± 1.2 kg/m3 and 988.5 ± 1.2 kg/m3
303.16 K, 239.3 kPa | 988.5 ± 1.2 kg/m3
303.16 K, 239.4 kPa | 988.5 ± 1.2 kg/m3
303.16 K, 240 kPa | 988.5 ± 1.2 kg/m3 and 988.6 ± 1.2 kg/m3
303.16 K, 240.3 kPa | 988.4 ± 1.2 kg/m3
303.16 K, 240.5 kPa | 988.5 ± 1.2 kg/m3
303.16 K, 240.8 kPa | 988.5 ± 1.2 kg/m3
303.16 K, 241.3 kPa | 988.5 ± 1.2 kg/m3
303.16 K, 241.5 kPa | 988.5 ± 1.2 kg/m3
303.16 K, 241.7 kPa | 988.5 ± 1.2 kg/m3
303.16 K, 242.2 kPa | 988.6 ± 1.2 kg/m3
303.16 K, 242.6 kPa | 988.5 ± 1.2 kg/m3
303.16 K, 242.7 kPa | 988.6 ± 1.2 kg/m3
303.16 K, 242.9 kPa | 988.6 ± 1.2 kg/m3
303.16 K, 243.3 kPa | 988.4 ± 1.2 kg/m3
303.16 K, 243.4 kPa | 988.5 ± 1.2 kg/m3
